Consider two sequences from article PMC8227935, “In Silico Predicted Antifungal Peptides: In Vitro and In Vivo Anti-Candida Activity” (Journal of Fungi, 2021).

pEC50: −log10 of the molar value. No end group written: not given here.

In series [1] the test system is C. albicans SC5314. The class given is cell-based, Candida albicans. How it is done: The candidacidal activity of ISDPs was evaluated by conventional colony forming unit (CFU) assays, as previously described. ISDPs were tested at serial dilutions to determine the half maximal effective concentration (EC50) values. Briefly, approximately 500 germinating C. albicans SC5314 cells were suspended in 100 µL of distilled water in the presence or absence (control growth) of ISDPs. After incubation at 37 °C for 6 h, cell suspensions were plated on Sabouraud dextrose agar. CFUs were enumerated after 48–72 h of incubation at 30 °C, and candidacidal activity was determined as a percentage of CFU reduction. Each assay was carried out in triplicate and at least two independent experiments were performed for each condition. EC50 was calculated by nonlinear regression analysis using GraphPad Prism 5 software. Afterwards, the kinetics of ISDPs killing activity, at their 2× EC50 value concentration, was determined by CFU assays up to 6 h. Samples were collected for CFU determination after 5, 10, 15, 20, 30, 60, 120, 240, and 360 min incubation.
Figure 1 Time kinetics of in vitro activity of in silico designed peptides (ISDPs) against Candida albicans SC5314. Peptide concentrations were equal to their 2× EC50 values. The activity is expressed as percental killing; reported data represent mean values ± standard deviation.

For series [2], the system named is monkey kidney epithelial cells (LLC-MK2). Description: MTT cytotoxicity assay. In kind it is cell-based. As to conditions: 200 µM peptide, 24 h, vs. 100% of untreated control cells. How it is done:
MTT assay, based on the ability of metabolically active cells to convert the yellow water-soluble tetrazolium salt into formazan crystals, was used to evaluate peptide cytotoxicity against monkey kidney epithelial cells (LLC-MK2). LLC-MK2 cells were treated with ISDPs (50, 100, and 200 µM) for 24 h. Cells in medium without peptide served as control. After this period, cells were incubated with MTT (5 mg/mL, 10 μL/well) in serum-free medium for 2 h at 37 °C, the medium was removed, and the crystal formazan dye was solubilized by adding isopropanol with 5% HCl 1 M (100 μL). Absorbance was measured at 540 nm.

Series [3] relates to human red blood cells (hRBCs). Description: Hemolytic activity, hemoglobin release. As to conditions: human red blood cells (group 0 Rh+), 50 µM peptide, 37 °C, absorbance 540 nm, PBS 0%, Triton 1% 100%. The class given is cell-based. How it is done:
Hemolytic and cytotoxic effects were determined as previously described. In particular, ISDPs (final concentrations of 25, 50, and 100 µM) were tested for their hemolytic activities against human red blood cells (hRBCs) (group 0 Rh+). After 30 and 120 min incubation at 37 °C, the release of hemoglobin was monitored by measuring the absorbance of the supernatant at 540 nm. Controls for zero hemolysis (blank) and 100% hemolysis consisted of hRBCs suspended in PBS and Triton 1%, respectively.

Series [4] concerns C. albicans SC5314. Conditions: C. albicans SC5314, parent K10S peptide; cited from earlier work. As for the experimental part:
Candidacidal activity of all tested peptides was very fast. After 30 min, in fact, percental killing ranged from 68% (K10S-SS) to nearly 100% (R-10S-RR and K10S-I).

Series [5] relates to C. albicans SC5314. As to conditions: G. mellonella larvae infected with C. albicans, treated with parent K10S peptide; controls 24 h; previous work; cited from earlier work. As for the experimental part: Therapeutic activity of ISDPs against C. albicans infection was evaluated in G. mellonella larvae. After the inoculum of a lethal dose of yeast cells, a single injection of peptides led to a significant increase in survival of larvae in comparison with infected animals inoculated with saline. The median survival time was 48 h for larvae treated with R10S-RR and K10S-I, and 24 h for larvae treated with K10T-TT and K10S-SS, versus 24 h for the control group. In a previous work, a median survival time of 72 h was reported for larvae treated with the parent K10S peptide in comparison with 24 h for ...

For series [6], the system named is C. albicans SC5314. Conditions: C. albicans SC5314, CFU assay; EC50 of K10S parent peptide; read-out: EC50 (95% Confidence Intervals); cited from earlier work. From the text:
Table 3 In vitro candidacidal activity of in silico designed peptides (ISDPs) against C. albicans SC5314. | column: EC50 ^1 (95% Confidence Intervals)

For another series, the system named is C. albicans SC5314 cells. Conditions: parent peptide K10S; cited from earlier work. From the text:
The individual amino acid substitutions also influenced the possible mechanism of action of the peptides. […] All ISDPs were characterized by the ability to induce intracellular ROS production (Figure 5).

Consider KKVSMSCSAS [Peptide K10S-SS], for which the “percental killing after 30 min” value with C. albicans SC5314 [1] came out at 68%. In addition, the cell viability in series [2] was 92.5 ± 0.11%. The hemolysis in series [3] (30 min) was 2.38%; in series [3] (120 min) it was 2.01%.
KKVTMTCSAS [Peptide K10S]: in the series on C. albicans SC5314 [4], the “percental killing at 30 min” value was 36.93%. The median survival time in the series with C. albicans SC5314 [5] is given as 72 h. Moreover, in the series on C. albicans SC5314 [6], the pEC50 was 6.56. Also, in the series with C. albicans SC5314 cells, the apoptosis induction result was “lack of induction of apoptotic processes”.
